From US20110112044A1, “NOVEL USES OF D-MANNOPYRANOSE DERIVATIVES” (CENTRE NATIONAL DE LA RECHERCHE SCIENTIFIQUE, priority 2008, published 2011)

System: chorioallantoic membrane (CAM) of chick embryo
Experiment: Chick embryo chorioallantoic membrane (CAM) angiogenesis assay
Type: in vivo, chick (white Leghorn)
Details: 20 μL of 6 mg/mL in PBS on nitrocellulose disk placed on CAM on 7th day, observed 12th day, estimated visually
Excerpt: In this example, the activity of mannose-6-phosphate (M6P) and of the compounds of formulae (I-1), (I-2) and (I-3) as prepared in examples 1 to 3 above, respectively, on the inhibition of angiogenesis was studied, in comparison with three D-mannopyranoside (DM) derivatives having pro-angiogenic activity and thus not forming part of the invention (DM1: methyl 7-amino-6,7-dideoxy-α-D-mannopyranoside; DM2: methyl 6-azido-6-deoxy-α-D-mannopyranoside and DM3: methyl 7-disodiumphosphonato-6,7-dideoxy-α-D-mannohepto-pyranoside). This study was performed on chick embryos according to the method described by Ribatti D. et al., Nat. Protoc., 2006, 1(1), 85-91 with a few minor modifications.
This study was performed on the chorioallantoic membrane (CAM) of chick embryo. The CAM is an extra-embryonic membrane formed on the fourth day of incubation by fusion of the chorion and of the allantois. It allows gas exchange between the chick embryo and the extra-embryonic environment up to the time of birth. This CAM is composed of a very thick capillary network that forms a continuous surface in direct contact with the shell. Rapid capillary proliferation of this membrane continues up to the 11th day; the mitotic index then decreases rapidly and the vascular system reaches its final organization on the 18th day, just before birth (hatching on the 21st day).
Fertilized eggs of a hen of the white Leghorn race were placed in an incubator from the start of embryogenesis, where they were kept under constant humidity at a temperature of 38° C. On the second day of incubation, a window was opened in the shell after removal of 2 to 3 mL of albumin in order to detach the CAM from the shell. The window was then sealed with adhesive tape and the egg was returned to the incubator to continue its development up to the date of the experiment. On the 7th day, pieces of inert synthetic polymers (nitrocellulose filter disks 0.4 cm in diameter) were soaked with 20 μL of each of the solutions of the test compounds (6 mg/mL in PBS) and then positioned on the CAM. The impact of the test substances on the angiogenesis was then observed on the 12th day and the quantitative evaluation of the pro- or anti-angiogenic response was estimated visually.

SMILES	effect on the vascularization of chick embryos
CO[C@H]1O[C@H](CCS(=O)(=O)[O-])[C@@H](O)[C@H](O)[C@@H]1O.[Na+] [(I-1), Methyl 6,7-Dideoxy-7-Sodiumsulfonato-α-d-mannoheptopyranoside]	inhibitory effect
CO[C@H]1OC(CC(=O)O)[C@@H](O)C(O)C1O (stereo partly drawn) [(I-2), (Methyl 6,7-Dideoxy-α-D-Mannoheptopyranosine)uronic acid]	inhibitory effect
CO[C@H]1OC(CC(C(=O)O)C(=O)O)[C@@H](O)C(O)C1O (stereo partly drawn) [(I-3), methyl 6-deoxy-6-malonate-α-D-Mannopyranoside]	inhibitory effect
CO[C@H]1O[C@H](CCN)[C@@H](O)[C@H](O)[C@@H]1O [DM1, methyl 7-amino-6,7-dideoxy-α-D-mannopyranoside, reference compound]	activating effect
CO[C@H]1O[C@H](CN=[N+]=[N-])[C@@H](O)[C@H](O)[C@@H]1O [DM2, methyl 6-azido-6-deoxy-α-D-mannopyranoside, reference compound]	activating effect
CO[C@H]1O[C@H](CCP(=O)([O-])[O-])[C@@H](O)[C@H](O)[C@@H]1O.[Na+].[Na+] [DM3, methyl 7-disodiumphosphonato-6,7-dideoxy-α-D-mannohepto-pyranoside, reference compound]	activating effect
COC1O[C@H](COP(=O)(O)O)[C@@H](O)[C@H](O)[C@@H]1O (stereo partly drawn) [M6P, methyl D-mannopyranoside 6-phosphate]	inhibitory effect
